{
  "source": "patent US10688099B2",
  "about": "“Methods for modulating the amount of RNA transcripts” (PTC Therapeutics, Inc., priority 2013, dated 2020)",
  "test_system": "RNA isoforms in PNN 1-46 SMA type I patient-derived fibroblasts",
  "assay": "RNA Abundance Modulation (RNA isoform abundance, iFPM, HiSeq RNA sequencing)",
  "type": "cell-based, human",
  "conditions": "3 μM",
  "protocol": "Cells from a cell line of interest are cultured in conditions sufficient to yield the number of cells capable of generating enough RNA for subsequent sequencing steps. Cells from the tested cell line are contacted with a compound described herein.\nTo culture said cells, they are seeded, at appropriate concentrations in a volume of media in a cell culture container and incubated for 4, 5, 6, 7, 8, 9, 10, or more hours. A concentrated solution of compound in a vehicle (e.g., DMSO) is then added in sufficient volume to result in the intended final concentration of the compound, for example 100 nM, 500 nM, 1 μM, 5 μM, 10 μM, 15 μM, 20 μM, or more. The cells may also be treated with vehicle alone, as a control. A number of replicates of each concentration or control may be made (e.g., 2 replicates). The cells are then incubated at a constant temperature appropriate for cell culture of the particular cell line (e.g., 37° C.) for 6, 12, 18, 24, 48, or more hours. After incubation, the growth medium is removed and the cells are washed with the appropriate buffer (e.g., PBS). Cells are then removed from adherence to the cell culture container by treatment with a solution containing trypsin, and the trypsin subsequently quenched with the appropriate volume of buffer (e.g., DMEM-FBS). The cells are then pelleted with gentle centrifugation (e.g., ≤90×g centrifugal force) and resuspended in a buffer to lyse the cells for extraction of RNA. The cell lysates may then be frozen (e.g., at −80° C.) or, alternately, may immediately be used in a procedure to purify the RNA (e.g. by use of the RNEASY PLUS® minikit). The RNA from cell lysates is eluted in the appropriate volume of buffer (e.g., RNEASE-FREE H2O®). The resulting purified RNA may then be sequenced (e.g., using RNASeq) or analyzed using a human exon array (e.g., by GENECHIP® human exon array) to determine changes in the RNA levels in those cells treated with compound compared to those cells treated only with DMSO. The purified RNA may also be quantified by other methods known in the art.\nUsing the RNA data obtained from sequencing, exon array, or other methods, a statistical analysis can reveal changes in the RNA levels of compound-treated compared with control. For example, t-test p-values may be calculated for the data obtained through sequencing and exon array methods in order to compare compound-treated cells to those treated with the DMSO control. […] Analysis of the sequencing and exon array data may then also yield predictions about the cause of the aberrant amount of an RNA transcript in the cells (e.g., perturbation of RNA splicing, RNA transcription, or RNA stability). These predictions may be further confirmed by methods known in the art. For example, RT-PCR and RT-qPCR may be used to confirm the change in amount of RNA transcripts for one or more particular transcripts of interest.\nFollowing the methods described above in Example 1, PNN 1-46 SMA type I patient-derived fibroblasts were treated with 300 nM or 3 μM Compounds 774 and 808 in 0.5% DMSO.\n700,000 cells were seeded in 10 mL of medium (DMEM plus 10% FBS) in a T-75 flask. Cells were allowed to attach for at least 4 hrs, after which 50 μL of a 200× compound solution (100% DMSO) was added to each well, and the plate was incubated at 37° C. for 24 hrs.\nAt the end of the incubation period, the supernatant was removed and the cells where washed with PBS. TrypLE (Invitrogen) express solution was added (e.g. 1.5 mL per one T75 flask). The flasks were incubated for 3 to 5 min at 37° C. The trypsin was then quenched, e.g., by adding 10 mL DMEM-FBS.\nNext, the cells were pelleted using gentle centrifugation without exceeding 90×g centrifugal force. The supernatant was removed and the cell pellet was re-suspended in 600 μL RLT buffer (the RLT buffer was supplemented with beta-mercaptoethanol according to the RNeasy protocol manual) by pipetting up and down until the pellet was completely dissolved […]",
  "data": [
    {"smiles": "CCc1nc(C)cn2nc(-c3cc(=O)n4cc(C5CCN(C)CC5)cc(C)c4n3)cc12", "note": "[Compound 774]", "values": [
      {"measurement": "L2FC (x + 1)", "setting": "UBE2V1 NM_022442", "result": "−1.807"},
      {"measurement": "L2abs (Cpd-DMSO)", "setting": "UBE2V1 NM_022442", "result": 1.32},
      {"measurement": "abs (Cpd-DMSO)", "setting": "UBE2V1 NM_022442", "result": 2, "unit": "iFPM"},
      {"measurement": "amp FC (x + 1)", "setting": "UBE2V1 NM_022442", "result": 3.50},
      {"measurement": "ave Cpd", "setting": "UBE2V1 NM_022442", "result": 0, "unit": "iFPM"},
      {"measurement": "FC (x + 1)", "setting": "UBE2V1 NM_199144", "result": 9.0627},
      {"measurement": "L2FC (x + 1)", "setting": "UBE2V1 NM_199144", "result": 3.180},
      {"measurement": "L2abs (Cpd-DMSO)", "setting": "UBE2V1 NM_199144", "result": 3.01},
      {"measurement": "abs (Cpd-DMSO)", "setting": "UBE2V1 NM_199144", "result": 8, "unit": "iFPM"},
      {"measurement": "amp FC (x + 1)", "setting": "UBE2V1 NM_199144", "result": 9.06},
      {"measurement": "ave Cpd", "setting": "UBE2V1 NM_199144", "result": 8, "unit": "iFPM"},
      {"measurement": "FC (x + 1)", "setting": "UBE2V1 NM_001032288", "result": 1.0807},
      {"measurement": "L2FC (x + 1)", "setting": "UBE2V1 NM_001032288", "result": 0.112},
      {"measurement": "L2abs (Cpd-DMSO)", "setting": "UBE2V1 NM_001032288", "result": 8.47},
      {"measurement": "abs (Cpd-DMSO)", "setting": "UBE2V1 NM_001032288", "result": 355, "unit": "iFPM"},
      {"measurement": "amp FC (x + 1)", "setting": "UBE2V1 NM_001032288", "result": 1.08},
      {"measurement": "ave Cpd", "setting": "UBE2V1 NM_001032288", "result": 4751, "unit": "iFPM"},
      {"measurement": "FC (x + 1)", "setting": "UBE2V1 NM_001257393", "result": 0.0796},
      {"measurement": "L2FC (x + 1)", "setting": "UBE2V1 NM_001257393", "result": "−3.651"},
      {"measurement": "L2abs (Cpd-DMSO)", "setting": "UBE2V1 NM_001257393", "result": 3.53},
      {"measurement": "abs (Cpd-DMSO)", "setting": "UBE2V1 NM_001257393", "result": 12, "unit": "iFPM"},
      {"measurement": "amp FC (x + 1)", "setting": "UBE2V1 NM_001257393", "result": 12.56},
      {"measurement": "ave Cpd", "setting": "UBE2V1 NM_001257393", "result": 0, "unit": "iFPM"},
      {"measurement": "FC (x + 1)", "setting": "UBE2V1 NM_001257394", "result": 0.1697},
      {"measurement": "L2FC (x + 1)", "setting": "UBE2V1 NM_001257394", "result": "−2.559"},
      {"measurement": "L2abs (Cpd-DMSO)", "setting": "UBE2V1 NM_001257394", "result": 4.01},
      {"measurement": "abs (Cpd-DMSO)", "setting": "UBE2V1 NM_001257394", "result": 16, "unit": "iFPM"},
      {"measurement": "amp FC (x + 1)", "setting": "UBE2V1 NM_001257394", "result": 5.89},
      {"measurement": "ave Cpd", "setting": "UBE2V1 NM_001257394", "result": 2, "unit": "iFPM"},
      {"measurement": "FC (x + 1)", "setting": "UBE2V1 NM_001257397", "result": 0.5713},
      {"measurement": "L2FC (x + 1)", "setting": "UBE2V1 NM_001257397", "result": "−0.808"},
      {"measurement": "L2abs (Cpd-DMSO)", "setting": "UBE2V1 NM_001257397", "result": 3.18},
      {"measurement": "abs (Cpd-DMSO)", "setting": "UBE2V1 NM_001257397", "result": 9, "unit": "iFPM"},
      {"measurement": "amp FC (x + 1)", "setting": "UBE2V1 NM_001257397", "result": 1.75},
      {"measurement": "ave Cpd", "setting": "UBE2V1 NM_001257397", "result": 11, "unit": "iFPM"},
      {"measurement": "FC (x + 1)", "setting": "UBE2V1 NM_001257399", "result": 1.1595},
      {"measurement": "L2FC (x + 1)", "setting": "UBE2V1 NM_001257399", "result": 0.214},
      {"measurement": "L2abs (Cpd-DMSO)", "setting": "UBE2V1 NM_001257399", "result": 4.66},
      {"measurement": "abs (Cpd-DMSO)", "setting": "UBE2V1 NM_001257399", "result": 25, "unit": "iFPM"},
      {"measurement": "amp FC (x + 1)", "setting": "UBE2V1 NM_001257399", "result": 1.16},
      {"measurement": "ave Cpd", "setting": "UBE2V1 NM_001257399", "result": 182, "unit": "iFPM"},
      {"measurement": "FC (x + 1)", "setting": "UBE2V1 NR_047554", "result": 0.0730},
      {"measurement": "L2FC (x + 1)", "setting": "UBE2V1 NR_047554", "result": "−3.777"},
      {"measurement": "L2abs (Cpd-DMSO)", "setting": "UBE2V1 NR_047554", "result": 8.39},
      {"measurement": "abs (Cpd-DMSO)", "setting": "UBE2V1 NR_047554", "result": 337, "unit": "iFPM"},
      {"measurement": "amp FC (x + 1)", "setting": "UBE2V1 NR_047554", "result": 13.71},
      {"measurement": "ave Cpd", "setting": "UBE2V1 NR_047554", "result": 25, "unit": "iFPM"},
      {"measurement": "FC (x + 1)", "setting": "UBE2V1 NR_047555", "result": 0.9261},
      {"measurement": "L2FC (x + 1)", "setting": "UBE2V1 NR_047555", "result": "−0.111"},
      {"measurement": "L2abs (Cpd-DMSO)", "setting": "UBE2V1 NR_047555", "result": "−1.09"},
      {"measurement": "abs (Cpd-DMSO)", "setting": "UBE2V1 NR_047555", "result": 0, "unit": "iFPM"},
      {"measurement": "amp FC (x + 1)", "setting": "UBE2V1 NR_047555", "result": 1.08},
      {"measurement": "ave Cpd", "setting": "UBE2V1 NR_047555", "result": 5, "unit": "iFPM"},
      {"measurement": "FC (x + 1)", "setting": "UBE2V1 NR_047556", "result": 0.5268},
      {"measurement": "L2FC (x + 1)", "setting": "UBE2V1 NR_047556", "result": "−0.925"},
      {"measurement": "L2abs (Cpd-DMSO)", "setting": "UBE2V1 NR_047556", "result": 3.88},
      {"measurement": "abs (Cpd-DMSO)", "setting": "UBE2V1 NR_047556", "result": 15, "unit": "iFPM"},
      {"measurement": "amp FC (x + 1)", "setting": "UBE2V1 NR_047556", "result": 1.90},
      {"measurement": "ave Cpd", "setting": "UBE2V1 NR_047556", "result": 15, "unit": "iFPM"},
      {"measurement": "FC (x + 1)", "setting": "UCHL5 AK225794", "result": 0.7328},
      {"measurement": "L2FC (x + 1)", "setting": "UCHL5 AK225794", "result": "−0.448"},
      {"measurement": "L2abs (Cpd-DMSO)", "setting": "UCHL5 AK225794", "result": 3.79},
      {"measurement": "abs (Cpd-DMSO)", "setting": "UCHL5 AK225794", "result": 14, "unit": "iFPM"},
      {"measurement": "amp FC (x + 1)", "setting": "UCHL5 AK225794", "result": 1.36},
      {"measurement": "ave Cpd", "setting": "UCHL5 AK225794", "result": 37, "unit": "iFPM"},
      {"measurement": "FC (x + 1)", "setting": "UCHL5 AK316064", "result": 1.3941},
      {"measurement": "L2FC (x + 1)", "setting": "UCHL5 AK316064", "result": 0.479},
      {"measurement": "L2abs (Cpd-DMSO)", "setting": "UCHL5 AK316064", "result": 4.93},
      {"measurement": "abs (Cpd-DMSO)", "setting": "UCHL5 AK316064", "result": 30, "unit": "iFPM"},
      {"measurement": "ave Cpd", "setting": "UCHL5 AK316064", "result": 106, "unit": "iFPM"},
      {"measurement": "FC (x + 1)", "setting": "UCHL5 BC015381", "result": 1.2220},
      {"measurement": "L2FC (x + 1)", "setting": "UCHL5 BC015381", "result": 0.289},
      {"measurement": "L2abs (Cpd-DMSO)", "setting": "UCHL5 BC015381", "result": 1.34},
      {"measurement": "abs (Cpd-DMSO)", "setting": "UCHL5 BC015381", "result": 3, "unit": "iFPM"},
      {"measurement": "ave Cpd", "setting": "UCHL5 BC015381", "result": 13, "unit": "iFPM"}
    ]}
  ]
}
